Source: paper PMC4742142, “Identification of novel, in vivo active Chk1 inhibitors utilizing structure guided drug design” (Oncotarget, 2015)
Where “and” joins values, the source holds several entries; their conditions need not be identical. Equal entries are not always repeated. Entries after “also recorded” stand apart in the source; their conditions may differ.

Columns and labels:
[1] = target: CDK1 (Homo sapiens, UniProt P06493); assay: In vitro kinase assay, CDK1; type: biochemical
Procedure: Kinase assays were performed as previously described.

[2] = system: HT29 cells; assay: Checkpoint abrogation assay (gemcitabine, nocodazole, pHH3 (S10)); type: cell-based, human
Procedure: The ability of V158411 to abrogate gemcitabine induced S-phase arrest was further characterized using a checkpoint abrogation assay. Cells were pre-treated with gemcitabine for 16 hours followed by increasing concentrations of V158411 in the presence of nocodazole, an inhibitor of microtubule polymerization, for a further 24 hours. Mitotic cells were then scored for pHH3 (S10) expression. p53 defective HT29 cells exposed to gemcitabine, which induces arrest in S-phase, were negative for pHH3 (S10) staining. V158411 treatment abrogated the gemcitabine induced S-phase arrest allowing cells to progress through into mitosis where they were trapped by nocodazole. These cells stained positive for pHH3 and are indicative of checkpoint abrogation.

[3] = system: A549; assay: Single agent cytotoxicity assay (SRB, 72 hours); type: cell-based; conditions: Homo sapiens, A549, lung
Procedure: (§1) All cells were obtained from the American Type Culture Collection and maintained as low passage stocks. Cells were routinely cultured in DMEM or RPMI1640 containing 10% FCS and 1% penicillin / streptomycin (Invitrogen). The cytotoxicity of V158411 was determined following exposure of cells in 96 well plates using a 10-point titration for 72 hours. Cell proliferation was determined using sulphorhodamine B staining following protein precipitation with 10% TCA.

[4] = system: Colo205; assay: Single agent cytotoxicity assay (SRB, 72 hours); type: cell-based; conditions: Homo sapiens, COLO 205, Colo205, colon
Procedure: as §1

[5] = system: HCT116; assay: Single agent cytotoxicity assay (SRB, 72 hours); type: cell-based; conditions: Homo sapiens, HCT-116, HCT116, colon
Procedure: as §1

[6] = system: HT29; assay: Single agent cytotoxicity assay (SRB, 72 hours); type: cell-based; conditions: Homo sapiens, HT-29, HT29, colon
Procedure: as §1

[7] = system: NCI-H460; assay: Single agent cytotoxicity assay (SRB, 72 hours); type: cell-based; conditions: Homo sapiens, NCI-H460, lung
Procedure: as §1

[8] = system: NCI-H520; assay: Single agent cytotoxicity assay (SRB, 72 hours); type: cell-based; conditions: Homo sapiens, NCI-H520, lung
Procedure: as §1

[9] = system: PC3; assay: Single agent cytotoxicity assay (SRB, 72 hours); type: cell-based; conditions: Homo sapiens, PC-3, PC3, prostate
Procedure: as §1

[10] = system: SW620; assay: Single agent cytotoxicity assay (SRB, 72 hours); type: cell-based; conditions: Homo sapiens, SW-620, SW620, colon
Procedure: as §1

[11] = Tolerability (MTD) in female nu/nu mice; type: in vivo
From the text: Animals were weighed daily for the first five days then twice weekly thereafter for the duration of the study. The mice were observed frequently for overt signs of any adverse, treatment-related side effects, and clinical signs of toxicity recorded. Toxicity greater than a group mean body-weight loss of more than 20% or 1 in 10 treatment-related deaths was considered to be the maximum tolerated dose.

[12] = system: Colo205 xenografts; assay: Colo205 xenograft antitumor efficacy; type: in vivo
From the text: (§2) Xenograft studies were undertaken by Charles River Laboratories Discovery Services, North Carolina. On the day of tumor cell implant, Colo205 cells were harvested and resuspended in 50% Matrigel matrix (BD Biosciences) in PBS at a concentration of 5 × 10^6 cells/mL. Each test mouse received 1 × 10^6 Colo205 cells implanted subcutaneously (SC) in the flank of female athymic nude mice (HRLN or NCr nu/nu), and tumor growth was monitored as the average size approached 100-150 mm^3. The SW620 tumor line was maintained by serial SC transplantation in female athymic nude mice (HRLN nu/nu). Tumor fragments, approximately 1 mm^3 each, were implanted SC into the right flank of each animal and allowed to grow towards a target size of 100-150 mm^3. On day 1 of the study, tumors were randomized into treatment groups before compound administration.
(§3) V158411 was formulated in D5W and administered via IV injection into the tail vein. Cyclic treatment regimens were followed and treatment ranged from 2-3 cycles.
(§4) Tumor size was measured with electronic calipers and tumor volume calculated according to the formula ((width × width) × length) /2.
(§5) The study endpoint was defined as a tumor volume of 750 mm^3 for Colo205 or 1500 mm^3 for SW620, or day 60, whichever came first. Each animal was euthanized when its' tumor reached this endpoint. The time to endpoint (TTE) for each mouse was calculated from the equation TTE = (log10(endpoint volume)-b)/m where b is the intercept and m the slope of the line obtained by linear regression of a log-transformed tumor growth data set.

[13] = system: SW620 xenograft; assay: SW620 xenograft antitumor efficacy
From the text: as §2, §3, §4, §5

[14] = Colo205, 75 mg/kg irinotecan IP followed by 30 mg/kg V158411 IV
[15] = Colo205, 75 mg/kg irinotecan IP followed by 60 mg/kg V158411 IV
[16] = SW620, 100 mg/kg irinotecan followed by 30 mg/kg V158411
[17] = SW620, 100 mg/kg irinotecan followed by 60 mg/kg V158411

CDK1, sequence (P06493 whole entry): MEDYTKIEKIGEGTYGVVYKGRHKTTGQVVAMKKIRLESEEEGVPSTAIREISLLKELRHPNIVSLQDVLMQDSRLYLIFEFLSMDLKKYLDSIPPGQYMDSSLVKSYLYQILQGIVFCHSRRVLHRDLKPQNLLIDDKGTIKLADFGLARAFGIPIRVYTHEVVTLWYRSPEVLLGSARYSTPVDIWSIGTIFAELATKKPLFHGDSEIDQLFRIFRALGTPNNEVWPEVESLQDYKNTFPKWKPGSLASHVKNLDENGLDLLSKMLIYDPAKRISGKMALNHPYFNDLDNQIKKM
CDK1, sequence (P14635 whole entry partner): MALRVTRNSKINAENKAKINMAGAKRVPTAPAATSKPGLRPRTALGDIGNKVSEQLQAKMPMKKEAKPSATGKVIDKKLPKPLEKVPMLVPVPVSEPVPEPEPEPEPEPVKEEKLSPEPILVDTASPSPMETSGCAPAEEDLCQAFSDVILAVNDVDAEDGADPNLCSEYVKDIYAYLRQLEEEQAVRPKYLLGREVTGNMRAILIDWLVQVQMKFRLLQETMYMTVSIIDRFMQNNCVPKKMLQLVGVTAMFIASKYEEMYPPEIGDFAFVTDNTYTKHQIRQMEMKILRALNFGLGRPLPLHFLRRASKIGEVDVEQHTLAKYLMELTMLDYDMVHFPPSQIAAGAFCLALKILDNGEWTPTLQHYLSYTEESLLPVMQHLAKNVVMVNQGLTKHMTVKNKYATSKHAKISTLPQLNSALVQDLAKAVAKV

Compound: CN(C)CC(C)(C)COc1ccc2[nH]c(-c3cc(NC(=O)c4cnn(Cc5ccccc5)c4)c[nH]c3=O)cc2c1 [V158411]
- IC50 [1]: > 50000 nM
- selectivity for CDK1 ([1]; Chk1 versus CDK1): more than 10 000 fold
- concentration of maximal abrogation of gemcitabine induced S-phase arrest [2]: around 300 nM
- EC50 ([2]; Homo sapiens, HT-29, gemcitabine 16 hours then compound plus nocodazole 24 hours, read-out: Gem pHH3 (S10) MI EC50 (abrogation of gemcitabine induced S-phase arrest)): 79 nM
- GI50 [3]: 1400 ± 350 nM
- GI50 [4]: 1600 ± 420 nM
- GI50 [5]: 4000 ± 780 nM
- GI50 [6]: 650 ± 250 nM
- GI50 [7]: 2700 ± 930 nM
- GI50 [8]: 550 ± 140 nM
- GI50 [9]: 9500 ± 1000 nM
- GI50 [10]: 500 ± 33 nM
- toxicity / maximum tolerated dose ([11]; IV bolus once or twice weekly, doses up to 100 mg/kg): minimal toxicity at doses up to 100 mg/kg; also recorded: the maximum tolerated dose of V158411 has yet to be found
- effect on irinotecan toxicity ([11]; MTD irinotecan (100 mg/kg IP) plus V158411 up to 100 mg/kg IV 2 hours later, q7d 3 weeks): did not result in increased irinotecan toxicity; also recorded: did not affect the toxicity of irinotecan
- acute, dose-related effects ([11]; single agent IV, self-limiting, minimized by slow infusion): flushing, tachycardia, exophthalmos
- effect on body weight ([11]; single agent, 60 to 100 mg/kg IV q7d for 21 days, female nude mice): no effect on body weight loss
- Median TTE ([12]; Colo205, 60 mg/kg IV V158411 monotherapy, untreated 19.8 days): 22.3 days
- single agent anti-tumor activity ([12]; Colo205, 60 mg/kg V158411 monotherapy): inactive; also recorded: no single agent activity
- %TGD [12, 14]: 129%
- T-C [12, 14]: 25.6
- Median TTE ([12]; Colo205, 75 mg/kg irinotecan IP followed by 30 mg/kg V158411 IV 2 hours later, q7d 3 cycles): 45.4 days
- %TGD [12, 15]: 203%
- T-C [12, 15]: 40.2
- Median TTE ([12]; Colo205, 75 mg/kg irinotecan IP followed by 60 mg/kg V158411 IV 2 hours later, q7d 3 cycles, study end day 60): 60.0 days and 60 days
- mean body weight nadir ([12]; Colo205, irinotecan plus V158411 combination therapy, day 4): −2.7%
- %TGD [13, 16]: 117%
- T-C [13, 16]: 15.5
- Median TTE ([13]; SW620, 100 mg/kg irinotecan followed by 30 mg/kg V158411 2 hours later): 28.8 days
- %TGD [13, 17]: 154%
- T-C [13, 17]: 21.3
- Median TTE ([13]; SW620, 100 mg/kg irinotecan followed by 60 mg/kg V158411 2 hours later): 35.1 days
- single agent anti-tumor activity ([13]; SW620, V158411 monotherapy): did not inhibit tumor growth; also recorded: no single agent activity
- mean body weight nadir ([13]; SW620, irinotecan plus 60 mg/kg V158411, day 5): −13.3%
